Several values for one entry are separate records, joined by “and”; a condition that tells them apart may be missing. Equal values may be shown once.
Assays:
[1] = system: OT-I CD8+ T cells; test: Intracellular IFNγ, TNF and Granzyme B in activated OT-I T cells; type: cell-based, mouse; design: Grzmb, single replicates / IFN TNF, single replicates / IFN TNF, column mean / Grzmb, difference between medians: Actual / Grzmb, difference between medians: Hodges-Lehmann / IFN TNF, group mean (Mean 2): unit not given here; conditions: for IFN TNF, group mean (Mean 2): N 6
Procedure: Single-cell suspensions from spleens and lymph nodes were obtained as described previously. For the detection of intracellular cytokines and granzyme B, T cells were fixed and permeabilized with the BD Cytofix/Cytoperm kit according to the manufacturer’s instructions. Briefly, T cells were first surface stained with fluorophore-conjugated antibodies and then fixed followed by permeabilization on ice for 20 min. Fixed and permeabilized cells were stained for IFN-γ, TNF, and granzyme B for 45 min at room temperature. For the detection of intracellular FoxP3 the Foxp3/Transcription Factor Staining Buffer Set (eBioscience) was used according to the manufacturer’s instructions. Briefly, cells were fixed and permeabilized for 1 h on ice followed by intracellular staining at room temperature for 45 min. For the detection of serum cytokines, the BD CBA Mouse Inflammation Kit™ was used according to the manufacturers’ instructions.
For the detection of intracellular IFNγ, TNF and Granzyme B, single-cell suspensions were obtained from lymph nodes of wild type (OT-I;Ptpn2^fl/fl) or PTPN2-deficient (OT-I;Lck-Cre;Ptpn2^fl/fl) mice and stimulated with 1 nM N4 peptide for 16 h and rested in complete T cell media supplemented with IL-2 (5 ng/ml) and IL-7 (0.2 ng/ml) for 2 days. […] Cells were then stained with fluorophore-conjugated antibodies to cell surface CD8 and intracellular IFNγ, TNF, and Granzyme B and analyzed by flow cytometry.

[2] = system: STAT-5 Y694 phosphorylation in CD8+ OT-I cells; test: Basal and IL-2-induced STAT-5 Y694 phosphorylation in activated OT-I cells; type: cell-based, mouse; conditions: for p-STAT-5 MFI, single replicates: 1 μM, IL-2 5 ng/ml, Fig. 2F raw data, listed as CMP-182; for p-STAT-5, group mean (Mean 2): IL-2 5 ng, N 6
Procedure: For assessing IL-2-induced STAT-5 Y694 phosphorylation (p-STAT-5) in activated OT-I cells, single cell suspension of OT-I cells from the lymph nodes of OT-I;Ptpn2^fl/fl mice were stimulated with 1 nM […] (N4) for 16 h. […] Reactions were terminated by washing the cells with ice-cold PBS and then stained with fixable viable dye and fluorophore-conjugated antibodies to CD8 on ice for 15 min. Cells were then washed and fixed with 4% (w/w) paraformaldehyde (BD Cytofix™Fixation Buffer) at room temperature for 30 min and permeabilised with 90% (v/v) methanol at −20 °C for 30 min. Permeabilised cells were incubated with a rabbit antibody specific for p-STAT-5 (p-STAT-5; D47E7, Cell Signaling Technology) for 60 min at room temperature, washed thrice with PBS and then stained with goat anti-rabbit IgG (H + L) F(ab’)2 fragment conjugated to Alexa Fluor 647 (Jackson ImmunoResearch Labs; West Grove, PA) to monitor for p-STAT-5 in CD8^+ OT-I cells by flow cytometry.

[3] = system: SFK Y418 phosphorylation in naive CD8+ T cells; test: TCR signaling, p-SFK (Y418) by flow cytometry; type: cell-based, mouse; conditions: for p-SFK MFI, single replicates: 10 μM 4 h, Fig. 2D raw data, listed as CMP-182
Procedure: For assessing TCR signaling, single-cell suspensions of naïve (CD44^loCD62L^hi) lymph node CD8^+ T cells (isolated using the EasySep™ Mouse Naïve CD8^+ T cell Isolation Kit, Stemcell Technologies) were washed with ice-cold PBS supplemented with 2% (v/v) FBS and stained with fixable viable dye and fluorophore-conjugated antibodies to CD8 and CD4 on ice for 15 min. […] Cells were then incubated with 5 μg/ml hamster α-mouse CD3ε for 20 min on ice, washed with complete T cell medium supplemented with 1% (v/v) FBS, and then TCR cross-linked with goat α-hamster IgG (20 μg /ml, Sigma) for the indicated times at 37 °C. The reaction was terminated by the addition of paraformaldehyde (BD Cytofix™ Fixation Buffer) to a final concentration of 2% (v/v) on ice for 20 min. Fixed cells were washed in complete T cell medium/1% (v/v) FBS and permeabilised with 90% (v/v) methanol on ice for 30 min. Permeabilised cells were stained with fluorophore-conjugated antibodies to Y418 phosphorylated and activated SFKs (p-SFK; 1:100, Invitrogen) for 1 h at room temperature; p-SFK mean fluorescence intensities in CD8^+ T cells were determined by flow cytometry.

[4] = system: STAT-1 target genes in AT3 tumors; test: qPCR of STAT-1 target genes in AT3 tumors; type: in vivo, mouse
Procedure: For quantitative real-time PCR analysis, RNA from tumors was isolated using RNAzol (Sigma-Aldrich, St. Louis, MO), and RNA quality was assessed using a NanoDrop 2000 (Thermo Fisher Scientific, Waltham MA). mRNA was reverse-transcribed using the High-Capacity cDNA Reverse Transcription Kit (Applied Biosystems, Thermo Fisher Scientific, Waltham, MA) and processed for quantitative Real-Time PCR using the Fast SYBR Green Master Mix (Applied Biosystems, Thermo Fisher Scientific, Waltham MA) and PrimePCR™ SYBR Green Assays (Bio-Rad, Hercules, CA) for Cxcl9 (qMmuCID0023784), Cxcl10 (qMmuCED0049500), Tapbp (qMmuCEP0035035), Tap1 (qMmuCEP0057739), […], H2ab1 (qMmuCIP0029038), Cd274 (qMmuCED0044192), H2k1 (qMmuCEP0034842), Tnf (qMmuCED0004141) and Ifng (qMmuCID0006268). Relative gene expression was determined by normalization to the house-keeping gene Rps18 (qMmuCED0045430) or Gapdh (qMmuCED0027497). Gene quantification was performed with the comparative Ct (ΔΔCt) method.

[5] = N4 1nM, 1 μM, Fig. 2B raw data, listed as CMP-182
[6] = Figure 9A, qPCR in tumour, individual mice, CMP-182 vs Saline

CC(C)(O)CCOc1ccc2cc(O)c(N3CC(=O)NS3(=O)=O)c(F)c2c1 [Compound 182, 5-(1-Fluoro-3-hydroxy-7-(3-hydroxy-3-methylbutoxy)naphthalen-2-yl)−1,2,5-thiadiazolidin-3-one 1,1-dioxide]
Grzmb, difference between medians: Actual ([1]; CMP-182 vs. DMSO, N4, Fig. 2B): 672.5 | Grzmb, difference between medians: Hodges-Lehmann ([1]; CMP-182 vs. DMSO, N4, Fig. 2B): 741.5 | Grzmb, single replicates [1, 5]: 3755 and 3056 and 3282 and 3899 and 3113 and 2884 | IFN TNF, single replicates [1, 5]: 32.6 and 31.1 and 31 and 36.2 and 30.7 and 32.8 | IFN TNF, group mean (Mean 2) ([1]; N4 1nM, Fig. 2B): 32.4 | Grzmb, median of column B ([1]; N4, n=6, Fig. 2B): 3198, n=6 | expression of Granzyme B, IFNγ and TNF ([1]; OT-I CD8+ T cells): increased expression | IFN TNF, single replicates ([1]; Vehicle (no N4), 1 μM, Fig. 2B raw data, listed as CMP-182): 0.038 and 0.03 and 0.037 and 0.066 and 0.023 (2×) | IFN TNF, group mean (Mean 2) ([1]; Vehicle (no N4), Fig. 2B): 0.03617 | IFN TNF, column mean ([1]; mean over Vehicle and N4 1nM rows, two-way ANOVA, Fig. 2B): 16.22 | p-STAT-5 MFI, single replicates ([2]; time 0): 5942 and 5539 and 8398 and 8753 and 4540 and 4913 | p-STAT-5 MFI, single replicates ([2]; time 5): 14341 and 15725 and 15901 and 18555 and 14928 and 16788 | p-STAT-5 MFI, single replicates ([2]; time 15): 16676 and 18523 and 19580 and 20940 and 16523 and 19213 | p-STAT-5 MFI, single replicates ([2]; time 30): 16027 and 18696 and 19133 and 19342 and 15170 and 18785 | p-STAT-5 MFI, single replicates ([2]; time 60): 13163 and 13881 and 14770 and 14670 and 10937 and 14331 | p-STAT-5 MFI, single replicates ([2]; time 120): 10820 and 12152 and 10493 and 12920 and 10327 and 12862 | basal and IL-2-induced STAT-5 Y694 phosphorylation (p-STAT-5) ([2]; CD8+ T cells): enhanced | p-STAT-5, column mean ([2]; CD8, IL-2 5 ng, mean over all times, two-way ANOVA, Fig. 2F): 14007 | p-STAT-5, group mean (Mean 2) ([2]; Row 1 (time 0), Fig. 2F): 6348 | p-STAT-5, group mean (Mean 2) ([2]; Row 2 (time 5), Fig. 2F): 16040 | p-STAT-5, group mean (Mean 2) ([2]; Row 3 (time 15), Fig. 2F): 18576 | p-STAT-5, group mean (Mean 2) ([2]; Row 4 (time 30), Fig. 2F): 17859 | p-STAT-5, group mean (Mean 2) ([2]; Row 5 (time 60), Fig. 2F): 13625 | p-STAT-5, group mean (Mean 2) ([2]; Row 6 (time 120), Fig. 2F): 11596 | pSTAT5, single replicates ([2]; N4 1 nM 16 h, then 1 μM 1 h, no IL-2, Fig. 2E raw data, listed as WT+I): 60.1 and 62.9 and 57.6 and 60.3 | pSTAT5%, mean of differences (B - A) ([2]; WT+I vs. WT, 4 pairs, Fig. 2E): 12.98 | p-SFK MFI, single replicates ([3]; TCR cross-linking time 0): 92.6 and 93.9 and 88 | p-SFK MFI, single replicates ([3]; TCR cross-linking time 2): 252 (2×) and 216 | p-SFK MFI, single replicates ([3]; TCR cross-linking time 5): 211 and 192 and 269 | p-SFK MFI, single replicates ([3]; TCR cross-linking time 10): 178 and 172 and 193 | p-SFK, column mean ([3]; 10 uM, mean over all times, two-way ANOVA, Fig. 2D): 184.1 | p-SFK, group mean (Mean 2) ([3]; 10 uM, time 0, N 3, Fig. 2D): 91.5 | p-SFK, group mean (Mean 2) ([3]; 10 uM, time 2, N 3, Fig. 2D): 240 | p-SFK, group mean (Mean 2) ([3]; 10 uM, time 5, N 3, Fig. 2D): 224 | p-SFK, group mean (Mean 2) ([3]; 10 uM, time 10, N 3, Fig. 2D): 181 | TCR-induced SFK Y418 phosphorylation (p-SFK) ([3]; α-CD3/IgG crosslinking): enhanced | expression of STAT-1 target genes, including Cd274, in AT3 tumors ([4]; 10 mg/kg i.v.): increased expression | cd274 [4, 6]: 1.71 and 1.441 and 1.3642 and 1.436 and 2.196 and 0.7307 | cxcl9 [4, 6]: 2.179 and 2.3662 and 1.906 and 0.2814 and 3.487 and 0.6344 | cxcl10 [4, 6]: 1.765 and 1.612 and 1.49 and 0.6644 and 2.144 and 0.8593

From article PMC10374545, “A small molecule inhibitor of PTP1B and PTPN2 enhances T cell anti-tumor immunity” (Nature Communications, 2023)
